Like-named read-outs stand apart in the source and are kept apart here.
Legend:
A549 cells [1] = assay: Intracellular glutathione (GSH, GSH/GSSG) measurement; assay type: cell-based, human; details: A549, 10 μM
Method: The total GSH content was measured using a HT Glutathione Assay kit (Trevigen, Galthersburg, Md.). Briefly A549 cells were plated in 60×15 mm culture plates and were allowed to attach overnight at 37° C. Cells were treated with 10 μM M2 and incubated for 0, 2, 4, 8, or 24 hours. Cells were harvested and proteins were precipitated with 5% (w/v) metaphosphoric acid. Samples were then processed following the manufacturer's instructions. The measurement of the absorbance of 5-thio-2-nitrobenzoic acid (TNB) at 405 nm was used to quantify glutathione levels in each sample, which was then compared to the standard curve and corrected for protein concentration.
For measurement of oxidized glutathione (Glutathione Disulfide or GSSG), samples and GSSG standards were treated with 2M 4-vinylpyridine (1 μL/50 μL sample) at room temperature for one hour. 4-Vinylpyridine (Sigma Aldrich, St. Louis, Mo.) blocks free thiols present in the reaction, consequentially blocking the formation of new GSSG by GSH. The 2M solution was freshly prepared by diluting 4-vinylpyridine in ethanol in a ratio of approximately 1:3.6. After incubation, samples were processed using the Trevigen kit's protocol and absorbance was measured at 405 nm as described herein.
The quantity of reduced cellular glutathione (or GSH) is obtained by subtracting the oxidized samples values from the total glutathione values or: GSH(reduced)=GSH(total)−GSSG(oxidized). Ratios of reduced to oxidized glutathione are shown to further represent cellular redox status after treatment with 6S or M2.

HCT-116 cells = assay: Western blot analysis of apoptosis markers and p53 (Part 5); assay type: cell-based, human; details: for p53 expression (Western blot): HCT-116 (p53 wild-type), 24 hours, M2, 6S 10, 20 or 40 μM, 8S, M2′, 10S, M2″ 20 μM
Method: (§1) Cell lysates were prepared in ice-cold RIPA lysis buffer [25 mM Tris-HCl (pH 7.6), 150 mM NaCl, 1% NP-40, 1% sodium deoxycholate, 0.1% SDS, Thermo Fisher Scientific] supplemented with a protease inhibitor cocktail (AEBSF, aprotinin, bestatin, E-64, leupeptin and pepstatin A in DMSO with EDTA, Thermo Fisher Scientific). Protein content was measured by a Pierce BCA Assay Kit (Thermo Fisher Scientific). Protein contents of cell lysates (30 μg protein/lane) were resolved by SDS-PAGE. Proteins were then electro-transferred onto PVDF membranes and blots were blocked for one hour at room temperature in 1×TBS with 1% Casein (Bio-Rad Laboratories, Berkeley, Calif.). Blots were then incubated overnight at 4° C. with the desired primary antibody diluted in TBS with 0.5% Tween-20. Blots were then washed with TBS-Tween 20 and probed for 1 hour with the appropriate secondary antibody (1:1000). Protein bands were visualized with chemiluminescence using West Femto maximum detection substrate (Thermo Fisher Scientific). To confirm equal protein loading in each lane, immunoblots were stripped and re-probed for β-actin. Protein fold-induction was calculated by normalizing the intensity of the band of interest to β-actin first, and then to DMSO control lanes.

HT-29 cells = assay: as above; assay type: cell-based, human; details: for p53 expression (Western blot): HT-29 (p53 mutant), 24 hours, M2, 6S 10, 20 or 40 μM, 8S, M2′, 10S, M2″ 20 μM
Method: as §1

[2] = system: IMR90 normal human lung cells; assay: MTT cell viability (Part 4); assay type: cell-based; details: read-out: IC50 (toxicity, MTT)
A549 cells [3] = assay: Western blotting of apoptosis and p53 pathway markers; assay type: cell-based, human; details: A549, 20 or 40 μM; for p53 levels (Western blot): 2 and 24 hours; for pro-apoptotic markers cytochrome C, cleaved caspase 3 and 9 (Western blot): 2 hours
Method: Cell extracts were prepared by incubating cells for 5 minutes on ice with RIPA (Radio-Immunoprecipitation Assay) buffer (Thermo Fisher Scientific, Rockford, Ill.) supplemented with a protease and phosphatase inhibitor mix. Cell lysate was then centrifuged at 13,000 rpm at 4° C. for 20 minutes, and supernatant was harvested for Western blot analysis. Briefly, 30-60 μg of protein extract were separated on a 10-16% polyacrylamide gel and transferred on PVDF (polyvinylidene difluoride) membrane (Biorad, Hercules, Calif.). Membrane was blocked using a 1% casein solution in TBS-Tween 20. Primary rabbit antibodies were diluted in blocking solution and incubated with the membrane overnight at 4° C. After washing the membrane with 3 changes of TBS-T, secondary Horse Radish Peroxydase (HRP)-conjugated anti-rabbit antibody was diluted 1:3000 in blocking solution and incubated with PVDF membrane for 1 hour at room temperature. […] Films were developed using a SRX-101A Konica Minolta developer (Tokyo, Japan). The experiment was repeated independently twice to confirm the results. Fold-induction of proteins calculated by normalizing the band of interest to the loading control (β-actin), and this adjusted intensity what compared to the control (DMSO) sample.

[4] = system: human colon cancer cells HCT-116; assay: MTT growth inhibition by M14 and M15 (Part 3); assay type: cell-based; details: HCT-116, 24 hours, 0 to 80 μM; read-out: IC50 (cell viability, MTT)
Method: (§2) Cell growth inhibition was determined by a MTT colorimetric assay. […] The reading reflected the number of viable cells and was expressed as a percentage of viable cells in the control. Both HCT-116 and H-1299 cells were cultured in McCoy's 5A medium. All of the above media were supplemented with 10% fetal bovine serum, 1% penicillin/streptomycin, and 1% glutamine, and the cells were kept in a 37° C. incubator with 95% humidity and 5% CO2.

[5] = system: human lung cancer cells H-1299; assay: MTT growth inhibition by M14 and M15 (Part 3); assay type: cell-based; details: H-1299, 24 hours, 0 to 80 μM; read-out: IC50 (cell viability, MTT)
Method: as §2

A549 cancer cells = assay: MTT cell viability (Part 4); assay type: cell-based, human; details: A549, 24 hours, read-out: IC50 (toxicity, MTT)
[6] = system: human colon fibroblast cells CCD-18Co; assay: in vitro; assay type: cell-based
Method: Growth inhibition of human cancer and normal cells. Cell growth inhibition was determined by a MTT colorimetric assay. Human colon cancer cells HCT-116, human lung cancer cells H-1299, human colon fibroblast cells CCD-18Co, and human lung fibroblast cells IMR-90 were plated in 96-well microtiter plates with 3000 cells/well and allowed to attach for 24 h at 37° C. […] After the cells were cultured for 48 h, the medium was aspirated and cells were treated with 200 μL fresh medium containing 2.41 mmol/L MTT. […] The reading reflected the number of viable cells and was expressed as a percentage of viable cells in the control. Both HCT-116 and H-1299 cells were cultured in McCoy's 5A medium. CCD-18Co and IMR-90 cells were cultured in Eagle's modified essential medium (EMEM). All of the above media were supplemented with 10% fetal bovine serum, 1% penicillin/streptomycin, and 1% glutamine, and the cells were kept in a 37° C. incubator with 95% humidity and 5% CO2.

CCCCC/C=C/C(=O)CCc1ccc(O)c(OC)c1 [[6]-shogaol, reference compound]
GSH/GSSG ratio (A549 cells [1]; 2 hours): significantly lower
intracellular GSH levels (A549 cells [1]; 2 hours): significantly depleted
GSH/GSSG ratio (A549 cells [1]; 4 hours): significantly lower
intracellular GSH levels (A549 cells [1]; 8 hours): significantly lower
GSH/GSSG ratio (A549 cells [1]; 24 hours): significantly higher
intracellular GSH levels compared to baseline (A549 cells [1]; 24 hours): significantly increased
p53 expression (Western blot) (HCT-116 cells): dose-dependent up-regulation of p53
p53 expression (Western blot) (HT-29 cells): dose-dependent up-regulation of p53
IC50 ([2]; listed as 6S): 36.6 µM
p53 levels (Western blot) (A549 cells [3]): increase in p53 levels
pro-apoptotic markers cytochrome C, cleaved caspase 3 and 9 (Western blot) (A549 cells [3]): elevated after 2 hours
IC50 [4]: 19.9 µM
IC50 [5]: 17.3 µM
IC50 (A549 cancer cells; listed as 6S): 25.2 µM
IC50 [6]: 43.9 µM

CCCCCC(CC(=O)CCc1ccc(O)c(OC)c1)SC[C@H](N)C(=O)O (stereo partly shown) [M2, 5-cysteinyl-[6]-shogaol]
intracellular GSH levels (A549 cells [1]; 2 hours): significantly depleted
GSH/GSSG ratio (A549 cells [1]; 4 hours): significantly lower
intracellular GSH levels (A549 cells [1]; 8 hours): significantly higher
GSH/GSSG ratio (A549 cells [1]; 24 hours): significantly higher
intracellular GSH levels compared to baseline (A549 cells [1]; 24 hours): significantly increased
p53 expression (Western blot) (HCT-116 cells): dose-dependent up-regulation of p53
Bcl-2 levels (Western blot, vs DMSO) (HCT-116 cells; HCT-116, 40 μM): undetectable
PUMA induction (Western blot, vs DMSO) (HCT-116 cells; HCT-116, 40 μM): ~17 fold
XIAP expression (Western blot, vs DMSO) (HCT-116 cells; HCT-116, 40 μM): undetectable
cleaved caspase 9 (Western blot, vs DMSO) (HCT-116 cells; HCT-116, 40 μM): ~4.6 fold
cytochrome c release (Western blot, vs DMSO) (HCT-116 cells; HCT-116, 40 μM): ~2.2 fold
p53 expression (Western blot) (HT-29 cells): dose-dependent up-regulation of p53
Bcl-2 levels (Western blot, vs DMSO) (HT-29 cells; HT-29, 40 μM): ~0.1 fold
PUMA induction (Western blot, vs DMSO) (HT-29 cells; HT-29, 40 μM): ~17 fold
XIAP expression (Western blot, vs DMSO) (HT-29 cells; HT-29, 40 μM): ~0.3 fold
cleaved caspase 9 (Western blot, vs DMSO) (HT-29 cells; HT-29, 40 μM): ~4.6 fold
cytochrome c release (Western blot, vs DMSO) (HT-29 cells; HT-29, 40 μM): ~2.2 fold
IC50 [2]: 98.3 µM
p53 levels (Western blot) (A549 cells [3]): increase in p53 levels
pro-apoptotic markers cytochrome C, cleaved caspase 3 and 9 (Western blot) (A549 cells [3]): elevated after 2 hours
IC50 (A549 cancer cells): 30.4 µM
IC50 [6]: 99.2 µM
